What was measured:
Format in all cases: cell-based
[1] = test system: ovarian cancer cell lines MDAH2774; assay: MTT assay, in vitro anti-tumor activity screening, MDAH2774; settings: Homo sapiens, MDAH 2774, MDAH2774 ovarian cancer cell line, read-out: half inhibitory concentration IC50, MDAH2774
From the text: (§1) The present invention also relates to the application of the N-acetyl amino acid ester derivatives of betulin for the preparation of anti-tumor drugs.
(§2) Human colon tumor cell lines HT29, pancreatic cancer cell lines MPC2 and ovarian cancer cell lines MDAH2774 were selected to determine the half inhibitory concentrations (IC50s) of the N-acetyl amino acid ester derivatives of betulin, betulinic acid and betulin, and the results are shown in Table 2.

[2] = test system: Human colon tumor cell lines HT29; assay: MTT assay, in vitro anti-tumor activity screening, HT29; settings: HT-29, HT29 colon tumor cell line, read-out: half inhibitory concentration IC50, HT29
From the text: as §1, §2

[3] = test system: pancreatic cancer cell lines MPC2; assay: MTT assay, in vitro anti-tumor activity screening, MPC2; settings: Homo sapiens, MPC2 pancreatic cancer cell line, read-out: half inhibitory concentration IC50, MPC2
From the text: as §1, §2

Row | Structure (SMILES) | IC50 [1] [µM] | IC50 [2] [µM] | IC50 [3] [µM]
1 | C=C(C)[C@@H]1CC[C@]2(CO)CC[C@]3(C)[C@H](CC[C@@H]4[C@@]5(C)CC[C@H](O)C(C)(C)[C@@H]5CC[C@]43C)[C@@H]12 [Betulin, Lup-20(29)-ene-3β,28-diol] | > 100 | > 100 | > 100
2 | C=C(C)[C@@H]1CC[C@]2(C(=O)O)CC[C@]3(C)[C@H](CC[C@@H]4[C@@]5(C)CC[C@H](O)C(C)(C)[C@@H]5CC[C@]43C)[C@@H]12 [Betulinic acid, reference compound] | 39.5 ± 2.19 |  | 38.6 ± 2.91
3 | C=C(C)[C@@H]1CC[C@]2(COC(=O)C(C)NC(C)=O)CC[C@]3(C)C(CC[C@@H]4[C@@]5(C)CC[C@H](O)C(C)(C)[C@@H]5CC[C@]43C)[C@@H]12 (some centres unmarked) [YWZ-002] | 10.6 ± 0.62 | 6.58 ± 0.24 | 4.24 ± 0.23
4 | C=C(C)[C@@H]1CC[C@]2(COC(=O)C(NC(C)=O)C(C)C)CC[C@]3(C)C(CC[C@@H]4[C@@]5(C)CC[C@H](O)C(C)(C)[C@@H]5CC[C@]43C)[C@@H]12 (some centres unmarked) [YWZ-003] | 10.9 ± 0.76 | 14.1 ± 0.83 | 11.4 ± 0.89
5 | C=C(C)[C@@H]1CC[C@]2(COC(=O)C3CCCN3C(C)=O)CC[C@]3(C)C(CC[C@@H]4[C@@]5(C)CC[C@H](O)C(C)(C)[C@@H]5CC[C@]43C)[C@@H]12 (some centres unmarked) [YWZ-004] | 2.13 ± 0.05 | 8.88 ± 0.62 | 5.32 ± 0.21
6 | C=C(C)[C@@H]1CC[C@]2(COC(=O)C(CC(C)C)NC(C)=O)CC[C@]3(C)C(CC[C@@H]4[C@@]5(C)CC[C@H](O)C(C)(C)[C@@H]5CC[C@]43C)[C@@H]12 (some centres unmarked) [YWZ-005] | 1.38 ± 0.04 | 18.1 ± 1.51 | 19.7 ± 0.83
7 | C=C(C)[C@@H]1CC[C@]2(COC(=O)C(NC(C)=O)C(C)CC)CC[C@]3(C)C(CC[C@@H]4[C@@]5(C)CC[C@H](O)C(C)(C)[C@@H]5CC[C@]43C)[C@@H]12 (some centres unmarked) [YWZ-006] | 7.26 ± 0.1 | 15 ± 1.31 | 10.2 ± 0.69

Source: patent publication US9556221B2, “N-acetyl amino acid ESTER derivatives of betulin and preparation method thereof” (Northeast Forestry University, priority 2014, dated 2017)
